From US10358453B2, “Antiviral compounds” (priority 2015, dated 2019)
pEC50, pIC50: −log10 of the molar value. Like-named read-outs stand apart in the source and are kept apart here.

Columns and labels:
[1] = Cytotoxicity determination (CCK-8, without addition of virus); type: cell-based; settings: human, HEp-2 cells (uninfected), no virus, Table C = greater than 100 μM, Table D = equal to or less than 100 μM and greater than 10 μM
Protocol: CPE reduction assays are performed as described by Sidwell and Huffman et al., Appl. Microbiol. (1971) 22(5):797-801 with slight modifications. HEp-2 cells (ATCC#, CCL-23) are seeded at a density of 1,500 cells/30 μL/well into the 384-well cell plate(s) (Corning#3701) one day prior to the assay. Compounds are added into 384-well cell plates by Labcyte POD 810 Plate Assembler system. Each of the test compounds is provided to duplicate wells of a 384-well cell plate at final concentrations starting from 100 μM or 1 μM using 1/3 stepwise dilutions for 9 points. Quick-thaw Respiratory Syncytial Virus (RSV) long strain (ATCC#VR-26) stock in a 37° C. water bath. Place on ice until ready to use. Viruses are diluted to the concentration of 100 TCID50/30 μL with medium and 30 μl diluted RSV are added into related wells of 384-well cell plates. For each plate, sixteen wells are set aside as uninfected, untreated cell controls (CC), and nine wells per test plate receive virus only as a control for virus replication (VC). The final DMSO concentration of all wells is 1%. Place the plates at 37° C., 5% CO2 for 5 days.
In order to determine the compound cytotoxicity, in parallel, each of the compounds is applied to duplicate wells in a 384-well cell plate at serial final concentrations starting from 100 μM using ½ stepwise dilutions for 7 points without addition of virus. Incubate the cells at 37° C., 5% CO2 for 5 days. Add 6 μL CCK-8 into each well and incubate in a CO2 incubator at 37° C. for 3-4 h. Read the plates to obtain the optical densities which are used to calculate 50% cytotoxicity concentration (CC50).

recombinant RSV complex = recombinant RSV complex (Human respiratory syncytial virus A, UniProt P28887); experiment: RSV polymerase inhibition assay; type: biochemical; settings: 2 h at 30° C., Table E = <1 μM, Table F = <50 μM
Protocol: Standard RSV polymerase assays were conducted in the presence of 10 nM recombinant RSV complex in a reaction buffer containing Tris-HCl pH7.5, 6 mM MgCl2, and other additives and substrates including RNA oligonucleotides and radionucleotides. Standard reactions were incubated in 96-well plate format for 2 h at 30° C., in the presence of increasing concentration of inhibitor. The reaction was stopped with 90 μL of 0.1M EDTA, and the reaction product was transferred to a “reading” 96-well plate. After washing of the plate, radiolabeled RNA products were detected according to standard procedures with a Trilux Topcount scintillation counter. The compound concentration at which the enzyme-catalyzed rate was reduced by 50% (IC50) was calculated by fitting the data to a non-linear regression (sigmoidal).

[2] = system: RSV subgenomic replicon 395 HeLa and APC126; experiment: RSV subgenomic replicon assay (Renilla luciferase); type: cell-based; settings: human respiratory syncytial virus; RSV replicon cells (395 HeLa 7 days or APC126 3 days); Table G = less than 1 μM, Table H = equal to or higher than 1 μM and less than 50 μM
Description: The RSV subgenomic replicon 395 HeLa and APC126 were licensed from Apath (Brooklyn, N.Y.) and were originally developed by Dr. Mark Meeples of Center for Vaccines & Immunity, the Research Institute at Nationwide Children's Hospital in Columbus, Ohio. To generate subgenomic RSV replicon, three glycoprotein genes, those for SH, G, and F, from a full-length recombinant GFP-expressing (rg) RSV antigenomic cDNA were deleted. In their place, a blasticidin S deaminase (bsd) gene was inserted. Through multiple steps, the RSV replicon was established in HeLa cells (395 Hela) or BHK cells (APC126). Both 395 HeLa and APC126 cells were cultured in Dulbecco's Modified Eagle Medium (DMEM) containing 4500 mg/L D-glucose, L-glutamine, and 110 mg/L sodium pyruvate (Invitrogen, Cat. #11995-040). The medium was further supplemented with 10% (v/v) fetal bovine serum (FBS) (Mediatech, Cat. #35-010-CV), 1% (v/v) penicillin/streptomycin (Mediatech, Cat. #30-002-CI), and 10 μg/mL of Blasticidin (BSD) (Invivogen, Cat. code ant-bl-1). Cells were maintained at 37° C. in a humidified 5% CO2 atmosphere.
Determination of 50% inhibitory concentration (EC50), 90% inhibitory concentration (EC90) and 50% cytotoxic concentration (CC50) in RSV replicon cells were performed by the following procedure. On the first day, 5000 RSV replicon cells per well were plated in a 96-well plate. On the following day, compounds to be tested were solubilized in 100% DMSO to 100X the desired final testing concentration. Each compound was serially diluted (1:3) up to 9 distinct concentrations. Compounds in 100% DMSO were reduced to 10% (v/v) DMSO by diluting 1:10 in cell culture media. A 10 μL sample of the compounds diluted to 10% (v/v) DMSO with cell culture media was used to treat the RSV replicon cells in 96-well format. The final DMSO concentration was 1% (v/v). Cells were incubated with compounds for 7 days (for 395Hela) or 3 days (for APC126) at 37° C. in a 5% CO2 atmosphere. In each assay, positive control that was previously characterized in the RSV replicon assay was included.
The Renilla Luciferase Assay System (Promega, Cat. #E2820) was used to measure anti-RSV replicon activity. Assay plates were set up as stated above. Luminescence was recorded using a Perkin Elmer multilabel counter Victor3V. EC50, the concentration of the drug required for reducing RSV replicon RNA by 50% in relation to the untreated cell control value, was calculated from the plot of percentage reductions of the […] against the drug concentrations using the Microsoft Excel forecast function.

[3] = 10 nM recombinant RSV complex, read-out: IC50
[4] = IC50, 10 nM recombinant RSV complex

Chain of recombinant RSV complex (P28887 whole entry): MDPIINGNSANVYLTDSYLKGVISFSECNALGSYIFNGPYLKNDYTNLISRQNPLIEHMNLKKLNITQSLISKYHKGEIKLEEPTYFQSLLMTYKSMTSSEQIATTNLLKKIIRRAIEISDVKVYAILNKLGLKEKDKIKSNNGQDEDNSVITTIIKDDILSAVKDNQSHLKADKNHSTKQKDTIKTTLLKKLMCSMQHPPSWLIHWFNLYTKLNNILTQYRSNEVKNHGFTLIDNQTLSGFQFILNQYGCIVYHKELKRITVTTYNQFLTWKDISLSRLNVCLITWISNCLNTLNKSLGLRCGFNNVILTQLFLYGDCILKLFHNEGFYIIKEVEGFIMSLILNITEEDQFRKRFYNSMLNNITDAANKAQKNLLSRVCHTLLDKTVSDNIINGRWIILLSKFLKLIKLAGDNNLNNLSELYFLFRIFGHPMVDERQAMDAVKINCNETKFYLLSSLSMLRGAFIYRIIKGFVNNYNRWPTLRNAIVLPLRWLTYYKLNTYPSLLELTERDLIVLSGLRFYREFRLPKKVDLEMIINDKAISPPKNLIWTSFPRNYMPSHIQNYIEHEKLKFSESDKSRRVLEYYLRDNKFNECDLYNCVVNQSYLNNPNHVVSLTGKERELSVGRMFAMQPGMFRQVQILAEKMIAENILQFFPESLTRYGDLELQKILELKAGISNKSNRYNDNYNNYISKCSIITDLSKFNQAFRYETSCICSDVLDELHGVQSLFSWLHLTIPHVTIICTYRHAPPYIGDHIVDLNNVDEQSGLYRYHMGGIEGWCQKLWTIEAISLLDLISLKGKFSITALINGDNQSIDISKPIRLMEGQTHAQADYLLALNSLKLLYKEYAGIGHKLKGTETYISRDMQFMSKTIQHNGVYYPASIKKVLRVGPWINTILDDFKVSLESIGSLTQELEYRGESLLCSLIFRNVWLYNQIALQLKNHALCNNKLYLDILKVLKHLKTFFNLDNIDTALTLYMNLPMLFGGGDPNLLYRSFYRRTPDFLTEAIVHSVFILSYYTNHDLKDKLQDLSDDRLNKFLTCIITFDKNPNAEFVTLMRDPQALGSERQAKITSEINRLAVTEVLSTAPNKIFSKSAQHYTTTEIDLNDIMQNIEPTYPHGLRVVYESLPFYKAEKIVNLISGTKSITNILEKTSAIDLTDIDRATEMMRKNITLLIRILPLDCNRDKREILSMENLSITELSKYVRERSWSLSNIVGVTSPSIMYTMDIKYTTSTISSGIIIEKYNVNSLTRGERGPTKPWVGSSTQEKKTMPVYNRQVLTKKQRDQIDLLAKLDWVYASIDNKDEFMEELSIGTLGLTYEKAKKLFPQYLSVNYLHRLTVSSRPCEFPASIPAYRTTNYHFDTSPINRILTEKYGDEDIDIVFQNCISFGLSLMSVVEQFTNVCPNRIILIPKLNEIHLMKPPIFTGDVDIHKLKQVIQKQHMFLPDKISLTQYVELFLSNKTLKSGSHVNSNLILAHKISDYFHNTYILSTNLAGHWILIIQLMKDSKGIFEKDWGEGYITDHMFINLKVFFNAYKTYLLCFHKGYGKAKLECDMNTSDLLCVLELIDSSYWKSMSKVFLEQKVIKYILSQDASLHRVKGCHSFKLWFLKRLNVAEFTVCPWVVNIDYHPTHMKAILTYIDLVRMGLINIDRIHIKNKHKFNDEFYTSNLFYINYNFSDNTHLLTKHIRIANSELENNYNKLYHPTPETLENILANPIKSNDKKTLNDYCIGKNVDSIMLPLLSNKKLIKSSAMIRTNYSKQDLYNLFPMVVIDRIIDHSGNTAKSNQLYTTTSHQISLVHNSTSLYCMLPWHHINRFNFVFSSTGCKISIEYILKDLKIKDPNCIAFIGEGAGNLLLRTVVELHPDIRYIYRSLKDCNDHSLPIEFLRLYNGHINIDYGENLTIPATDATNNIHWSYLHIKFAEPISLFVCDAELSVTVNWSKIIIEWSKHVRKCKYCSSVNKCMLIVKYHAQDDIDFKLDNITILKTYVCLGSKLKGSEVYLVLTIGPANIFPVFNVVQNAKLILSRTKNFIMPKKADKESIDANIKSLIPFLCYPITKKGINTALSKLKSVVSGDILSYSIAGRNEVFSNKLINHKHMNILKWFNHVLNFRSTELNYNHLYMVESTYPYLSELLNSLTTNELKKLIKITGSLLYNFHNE
Chain of recombinant RSV complex (P03421 whole entry, further chain): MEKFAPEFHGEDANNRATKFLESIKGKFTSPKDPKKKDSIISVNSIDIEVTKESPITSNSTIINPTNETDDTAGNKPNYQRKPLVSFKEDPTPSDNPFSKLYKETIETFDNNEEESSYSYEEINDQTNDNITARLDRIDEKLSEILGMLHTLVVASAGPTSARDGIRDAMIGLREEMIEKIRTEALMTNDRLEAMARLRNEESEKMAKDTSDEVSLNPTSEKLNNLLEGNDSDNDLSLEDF

SMILES | CC50 at 5 days [1] | pIC50 (recombinant RSV complex; [3]) | pEC50 [2] | pIC50 (recombinant RSV complex; [4])
COc1cc(C(=O)NCC(O)(c2cc3c(c(-c4ccc(F)cc4)n2)OCC3(C)N)C(F)(F)F)cc2c1NC(=O)NC2 (stereo not drawn) [Compound 43] | 10 to 100 µM | > 6.00 | 4.30 to 6.00 | –
COc1cc(C(=S)NCC(O)(c2cc3c(c(-c4ccc(F)cc4)n2)OCC3(C)N)C(F)(F)F)ccc1OCCO (stereo not drawn) [Compound 44] | 10 to 100 µM | > 6.00 | > 6.00 | –
COc1nc(C(=O)NCC(O)(c2cc3c(c(-c4ccc(F)cc4)n2)OCC3(C)N)C(F)(F)F)cc2c1NC(=O)C2 (stereo not drawn) [Compound 47] | 10 to 100 µM | > 6.00 | > 6.00 | –
CC1(N)COc2c1cc(C(O)(CNC(=O)c1ccc(CCO)c(OC3CC3)c1)C(F)(F)F)nc2-c1ccc(F)cc1 (stereo not drawn) [Compound 49] | 10 to 100 µM | > 6.00 | > 6.00 | –
C[C@@]1(N)COc2c1cc([C@](O)(CNC(=O)c1ccc(OCCO)c(OC3CC3)c1)C(F)(F)F)nc2-c1ccc(F)cc1 [Compound 55] | 10 to 100 µM | > 6.00 | > 6.00 | –
CC(C)(N)c1cc(-c2ccc(F)cc2)nc([C@@](O)(CNC(=O)c2ccc(OCCO)c(OC3CC3)c2)C(F)(F)F)c1 [Compound 57] | 10 to 100 µM | > 6.00 | > 6.00 | –
CC(C)(N)c1cc(-c2ccc(F)cc2)nc([C@@](O)(CNC(=O)c2ccc(OC3CC3)c(OCCO)c2)C(F)(F)F)c1 [Compound 59] | 10 to 100 µM | > 6.00 | > 6.00 | –
C[C@@]1(N)COc2c1cc([C@@](O)(CNC(=O)c1ccc(OC3CC3)c(OCCO)c1)C(F)(F)F)nc2-c1ccc(F)cc1 [Compound 60] | 10 to 100 µM | > 6.00 | > 6.00 | –
C[C@@]1(N)CNc2c1cc([C@](O)(CNC(=O)c1ccc(OCCO)c(OC3CC3)c1)C(F)(F)F)nc2-c1ccc(F)cc1 [Compound 61] | 10 to 100 µM | > 6.00 | > 6.00 | –
C[C@@]1(N)CNc2c1cc([C@](O)(CNC(=O)c1ccc(OC3CC3)c(OC3CC3)c1)C(F)(F)F)nc2-c1ccc(F)cc1 [Compound 62] | 10 to 100 µM | > 4.30 | > 6.00 | –
COc1cc(C(=O)NC[C@@](O)(c2cc3c(c(-c4ccc(F)cc4)n2)OC[C@@]3(C)N)C(F)(F)F)cc(OC)c1CCCO [Compound 65] | 10 to 100 µM | > 6.00 | > 6.00 | –
COc1cc(C(=O)NC[C@@](O)(c2cc3c(c(-c4ccc(F)cc4)n2)OC[C@@]3(C)N)C(F)(F)F)cc(OC)c1OCCO [Compound 67] | > 100 µM | – | > 6.00 | > 4.30
COc1cc(OCCO)cc(C(=O)NC[C@@](O)(c2cc3c(c(-c4ccc(F)cc4)n2)OC[C@@]3(C)N)C(F)(F)F)c1 [Compound 68] | 10 to 100 µM | > 6.00 | > 6.00 | –
COc1cc(C(=O)NC[C@@](O)(c2cc3c(c(-c4ccc(F)cc4)n2)NC[C@@]3(C)N)C(F)(F)F)ccc1OC[C@@H](C)O [Compound 69] | 10 to 100 µM | > 6.00 | > 6.00 | –
COc1cc(C(=O)NC[C@@](O)(c2cc3c(c(-c4ccc(F)cc4)n2)NC[C@@]3(C)N)C(F)(F)F)ccc1OCC(N)=O [Compound 72] | > 100 µM | > 6.00 | > 6.00 | –
COc1cc(C(=O)NCC(O)(c2cc3c(c(-c4ccc(F)cc4)n2)CCC3(C)N)C(F)(F)F)ccc1OCCO (stereo not drawn) [Compound 73] | 10 to 100 µM | > 6.00 | > 6.00 | –
COc1cc(C(=O)NC[C@@](O)(c2cc3c(c(-c4ccc(F)cc4)n2)NC[C@@]3(C)N)C(F)(F)F)cc2cccnc12 [Compound 74] | 10 to 100 µM | > 6.00 | > 6.00 | –
COc1cc(C(=O)NC[C@@](O)(c2cc3c(c(-c4ccc(F)cc4)n2)NC[C@@]3(C)N)C(F)(F)F)ncc1OCCO [Compound 75] | 10 to 100 µM | > 6.00 | > 6.00 | –
C[C@@]1(N)CNc2c1cc([C@](O)(CNC(=O)c1ccc3c(c1)CC(=O)N3)C(F)(F)F)nc2-c1ccc(F)cc1 [Compound 76] | 10 to 100 µM | > 6.00 | > 6.00 | –
COc1cc(C(=O)NC[C@@](O)(c2cc3c(c(-c4ccc(F)cc4)n2)N(C)C[C@@]3(C)N)C(F)(F)F)ccc1OCCO [Compound 79] | 10 to 100 µM | > 6.00 | > 6.00 | –
C[C@@]1(N)COc2c1cc([C@](O)(CNC(=O)c1cc(OCCO)c3ncccc3c1)C(F)(F)F)nc2-c1ccc(F)cc1 [Compound 80] | 10 to 100 µM | > 6.00 | > 6.00 | –
C[C@@]1(N)CNc2c1cc([C@](O)(CNC(=O)c1cc(OCCO)c3ncccc3c1)C(F)(F)F)nc2-c1ccc(F)cc1 [Compound 81] | 10 to 100 µM | > 6.00 | > 6.00 | –
C[C@@]1(N)CNc2c1cc([C@](O)(CNC(=O)c1ccc3c(c1)CC(=O)N3CCO)C(F)(F)F)nc2-c1ccc(F)cc1 [Compound 82] | > 100 µM | – | > 6.00 | > 6.00
COc1cc(C(=O)NC[C@@](O)(c2cc3c(c(-c4ccc(F)cc4)n2)NC[C@@]3(C)N)C(F)(F)F)cc2cc[nH]c12 [Compound 83] | 10 to 100 µM | > 6.00 | > 6.00 | –
